The text below walks through data of the supplement of paper PMC11208160.
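Note: IS621 recombinase and bridge RNA in Escherichia coli cells.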

This data set in a line: recombinant barcode read abundance after kanamycin selection (control-corrected) (log10(CPM+1)); higher = more efficient recombination; sequences stand for … in AGTGCAGAGAAAATCGGCCAGTTTTCTCTGCCTGCAGTCCGCATGCCGT…AGATTTATGCAGCGGACTGCCTTTCTCCCAAAGTGATAAACCGGACAGTATCATGGACCGGTTTTCCCGGTAATCCGTATTTGCAAGGTTGGTTTCACT; site = the 11-nt target. In a few lines:
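A promoter, a target, a barcode and the first 104 bridge RNA bases under J23119 made up each oligo. Oligos were Gibson-cloned into a vector bearing the other 73 bp and a T7-inducible recombinase, then co-electroporated into E. coli with a donor plasmid and plated in duplicate on chloramphenicol/ampicillin LB agar (control) or chloramphenicol/ampicillin/kanamycin with 0.1 mM IPTG. Recombination efficiency is the averaged, control-corrected counts per million of recombinant-junction barcodes. Reported values are log10(CPM+1).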
For the sequence “GGTAGATCTTGGGTTCTAACCTGTTGCTT (site GGTAGATCTAA)”, the “recombinant barcode read abundance (log10)” value is 0.599.
“GGTAGATCTTGGGTTCTAACCTGTTGCTT (site GGTAGGCCTAA)”: the “recombinant barcode read abundance (log10)” value is 0.0553.
For the sequence “GGTCAAACTTGGGTTCTAACCTGTTGCCT (site GGTCAAACTAG)”, the “recombinant barcode read abundance (log10)” value is 0.492.
In the case of “GGTCAAACTTGGGTTCTAACCTGTTGCCT (site GGTCCAACTAG)” it was 0.0951; in that of “GGTCAAACTTGGGTTCTAACCTGTTGCCT (site GGTCGAACTAG)”, 0.109; in that of “GGTCAAACTTGGGTTCTAACCTGTTGCCT (site GGTCTAACTAG)”, 0.0309.
On to “GGTCAACCTTGGGTTCTAACCTGTTGCGG (site GGTCAACCTCC)”, for which the “recombinant barcode read abundance (log10)” value is 2.5.
Take “GGTCAACCTTGGGTTCTAACCTGTTGCGG (site TACTCTTCTAG)”: the “recombinant barcode read abundance (log10)” value amounted to 0.113.
Consider “GGTCATACTTGGGTTCTAACCTGTTGCCT (site GGTCATACTAG)”, for which the “recombinant barcode read abundance (log10)” value is 0.455.
On to “GGTCATACTTGGGTTCTAACCTGTTGCCT (site GGTCATCCTAG)”, for which the “recombinant barcode read abundance (log10)” value came out at 0.0309.
Regarding “GGTCATACTTGGGTTCTAACCTGTTGCCT (site GGTCATGCTAG)”, the “recombinant barcode read abundance (log10)” value is 0.074.
On to “GGTCATACTTGGGTTCTAACCTGTTGCCT (site GGTCATTCTAG)”, for which the “recombinant barcode read abundance (log10)” value stood at 0.246.
In the case of “GGTCCTCCTTGGGTTCTAACCTGTTGCGA (site GGTCCTCCTTC)” it was 0.847; in that of “GGTCCTCCTTGGGTTCTAACCTGTTGCGA (site TCCTAGTCTCT)”, 0.229.
Turning to “GGTCGCGCTTGGGTTCTAACCTGTTGCCT (site GGTCGAGCTAG)”, the “recombinant barcode read abundance (log10)” value came out at 0.113.
As to “GGTCGCGCTTGGGTTCTAACCTGTTGCCT (site GGTCGCGCTAG)”, the “recombinant barcode read abundance (log10)” value was 0.535.
With “GGTCGCGCTTGGGTTCTAACCTGTTGCCT (site GGTCGGGCTAG)”, the “recombinant barcode read abundance (log10)” value was 0.832.
Regarding “GGTCGCGCTTGGGTTCTAACCTGTTGCCT (site GGTCGTGCTAG)”, the “recombinant barcode read abundance (log10)” value came to 0.0211.
For “GGTGACCCTTGGGTTCTAACCTGTTGCAT (site GGTGACCCTAT)”, the “recombinant barcode read abundance (log10)” value was 2.75.
As for “GGTGACCCTTGGGTTCTAACCTGTTGCAT (site TCGTGAGCTCA)”, the “recombinant barcode read abundance (log10)” value was 0.97.
In the case of “GGTGACCCTTGGGTTCTAACCTGTTGCGG (site GGTAACCCTCC)”, the “recombinant barcode read abundance (log10)” value amounted to 2.05.
With “GGTGACCCTTGGGTTCTAACCTGTTGCGG (site GGTCACCCTCC)”, the “recombinant barcode read abundance (log10)” value is 0.224.
As for “GGTGACCCTTGGGTTCTAACCTGTTGCGG (site GGTGACCCTCC)”, the “recombinant barcode read abundance (log10)” value was 2.73.
In the case of “GGTGACCCTTGGGTTCTAACCTGTTGCGG (site GGTTACCCTCC)” it was 0.33.
For the sequence “GGTGCTCCTTGGGTTCTAACCTGTTGCTT (site ATTGCTCCTAA)”, the “recombinant barcode read abundance (log10)” value came to 0.135.
In the case of “GGTGCTCCTTGGGTTCTAACCTGTTGCTT (site GGTGCTCCTAA)”, the “recombinant barcode read abundance (log10)” value was 0.0711.
Turning to “GGTGGGTCTTGGGTTCTAACCTGTTGCTT (site GGTGGGTCTAA)”, the “recombinant barcode read abundance (log10)” value was 1.9.
“GGTGGGTCTTGGGTTCTAACCTGTTGCTT (site GGTGGGTCTAC)”: the “recombinant barcode read abundance (log10)” value worked out at 0.663.
“GGTGGGTCTTGGGTTCTAACCTGTTGCTT (site GGTGGGTCTAG)”: the “recombinant barcode read abundance (log10)” value was determined as 0.929.
In the case of “GGTGGGTCTTGGGTTCTAACCTGTTGCTT (site GGTGGGTCTAT)” it was 1.69; in that of “GGTTAGCCTTGGGTTCTAACCTGTTGCCT (site GGTTAGCCTAG)”, 0.579.
On to “GGTTAGCCTTGGGTTCTAACCTGTTGCCT (site TGTTAGCCTTG)”, for which the “recombinant barcode read abundance (log10)” value was 0.0783.
Turning to “GGTTATCCTTGGGTTCTAACCTGTTGCGG (site GGTTATCCTCC)”, the “recombinant barcode read abundance (log10)” value was determined as 1.17.
Take “GGTTATCCTTGGGTTCTAACCTGTTGCGG (site TTACGCTCTTA)”: the “recombinant barcode read abundance (log10)” value amounted to 0.0896.
As for “GGTTCACCTTGGGTTCTAACCTGTTGCAG (site GGTTCACCTCT)”, the “recombinant barcode read abundance (log10)” value came out at 1.05.
Turning to “GGTTCACCTTGGGTTCTAACCTGTTGCAG (site GGTTGACCTAT)”, the “recombinant barcode read abundance (log10)” value was found to be 0.0489.
Regarding “GGTTGAACTTGGGTTCTAACCTGTTGCAT (site GCTTGAACTAA)”, the “recombinant barcode read abundance (log10)” value is 0.128.
Consider “GGTTGAACTTGGGTTCTAACCTGTTGCAT (site GGTTGAACTAT)”, for which the “recombinant barcode read abundance (log10)” value worked out at 0.0521.
As to “GGTTGCACTTGGGTTCTAACCTGTTGCCT (site AGTTGCTCTAG)”, the “recombinant barcode read abundance (log10)” value came out at 0.189.
“GGTTGCACTTGGGTTCTAACCTGTTGCCT (site GGTTGCACTAG)”: the “recombinant barcode read abundance (log10)” value was 0.4.
Turning to “GTAAACTCTTGGGTTCTAACCTGTTGCCT (site GTAAACTCTAG)”, the “recombinant barcode read abundance (log10)” value was determined as 1.98.
As to “GTAAACTCTTGGGTTCTAACCTGTTGCCT (site GTCAACTCTAG)”, the “recombinant barcode read abundance (log10)” value is 0.0684.
In the case of “GTAAACTCTTGGGTTCTAACCTGTTGCCT (site GTGAACTCTAG)” it was 0.0821; in that of “GTAAACTCTTGGGTTCTAACCTGTTGCCT (site GTTAACTCTAG)”, 0.427; in that of “GTAAAGTCTTGGGTTCTAACCTGTTGCCA (site CTAAAGTCTTG)”, 0.0579.
For “GTAAAGTCTTGGGTTCTAACCTGTTGCCA (site GTAAAGTCTTG)”, the “recombinant barcode read abundance (log10)” value is 0.276.
The result for “GTAAATCCTTGGGTTCTAACCTGTTGCCT (site ATAAATCCTAG)” reads 0.141; that for “GTAAATCCTTGGGTTCTAACCTGTTGCCT (site CTAAATCCTAG)”, 0.222; that for “GTAAATCCTTGGGTTCTAACCTGTTGCCT (site GTAAATCCTAG)”, 1.01.
On to “GTAAATCCTTGGGTTCTAACCTGTTGCCT (site TTAAATCCTAG)”, for which the “recombinant barcode read abundance (log10)” value came out at 0.132.
The result for “GTAAATGCTTGGGTTCTAACCTGTTGCCT (site GTAAATGCTAG)” reads 1.36.
In the case of “GTAAATGCTTGGGTTCTAACCTGTTGCCT (site GTAACTGCTAG)” it was 0.0397; in that of “GTAAATGCTTGGGTTCTAACCTGTTGCCT (site GTAAGTGCTAG)”, 0.0927; in that of “GTAAATGCTTGGGTTCTAACCTGTTGCCT (site GTAATTGCTAG)”, 0.0782.
The result for “GTAACCGCTTGGGTTCTAACCTGTTGCCT (site GTAACCGCTAG)” reads 1.64; that for “GTAACCGCTTGGGTTCTAACCTGTTGCCT (site GTCACCGCTAG)”, 0.228.
Consider “GTAACCGCTTGGGTTCTAACCTGTTGCCT (site GTGACCGCTAG)”, for which the “recombinant barcode read abundance (log10)” value worked out at 0.115.
As for “GTAACCGCTTGGGTTCTAACCTGTTGCCT (site GTTACCGCTAG)”, the “recombinant barcode read abundance (log10)” value worked out at 0.432.
The result for “GTAACCTCTTGGGTTCTAACCTGTTGCCA (site GTAACCTCTAG)” reads 0.904; that for “GTAACCTCTTGGGTTCTAACCTGTTGCCA (site GTAACCTCTCG)”, 0; that for “GTAACCTCTTGGGTTCTAACCTGTTGCCA (site GTAACCTCTGG)”, 0.0508.
As for “GTAACCTCTTGGGTTCTAACCTGTTGCCA (site GTAACCTCTTG)”, the “recombinant barcode read abundance (log10)” value was 0.983.
The result for “GTAACCTCTTGGGTTCTAACCTGTTGCCG (site GTAACCTCTAG)” reads 0.861.
“GTAACCTCTTGGGTTCTAACCTGTTGCCG (site GTAACCTCTCG)”: the “recombinant barcode read abundance (log10)” value was 1.48.
In the case of “GTAACCTCTTGGGTTCTAACCTGTTGCCG (site GTAACCTCTGG)”, the “recombinant barcode read abundance (log10)” value worked out at 0.0296.
For “GTAACCTCTTGGGTTCTAACCTGTTGCCG (site GTAACCTCTTG)”, the “recombinant barcode read abundance (log10)” value is 0.0357.
In the case of “GTAAGATCTTGGGTTCTAACCTGTTGCAC (site AGGCCCGCTCC)”, the “recombinant barcode read abundance (log10)” value turned out to be 0.0896.
Take “GTAAGATCTTGGGTTCTAACCTGTTGCAC (site GTAAGATCTGT)”: the “recombinant barcode read abundance (log10)” value was determined as 2.12.
As for “GTAAGTACTTGGGTTCTAACCTGTTGCTT (site GTAAGAACTAA)”, the “recombinant barcode read abundance (log10)” value came to 0.169.
Regarding “GTAAGTACTTGGGTTCTAACCTGTTGCTT (site GTAAGCACTAA)”, the “recombinant barcode read abundance (log10)” value was 0.233.
“GTAAGTACTTGGGTTCTAACCTGTTGCTT (site GTAAGGACTAA)”: the “recombinant barcode read abundance (log10)” value amounted to 0.159.
“GTAAGTACTTGGGTTCTAACCTGTTGCTT (site GTAAGTACTAA)”: the “recombinant barcode read abundance (log10)” value was 0.221.
“GTAAGTCCTTGGGTTCTAACCTGTTGCGA (site GTAAGTCCTTC)”: the “recombinant barcode read abundance (log10)” value is 2.14.
The result for “GTAAGTCCTTGGGTTCTAACCTGTTGCGA (site GTGAGTCCTCC)” reads 0.0113.
In the case of “GTAAGTGCTTGGGTTCTAACCTGTTGCCT (site GTAAATGCTAG)”, the “recombinant barcode read abundance (log10)” value was found to be 0.0588.
On to “GTAAGTGCTTGGGTTCTAACCTGTTGCCT (site GTAACTGCTAG)”, for which the “recombinant barcode read abundance (log10)” value amounted to 0.0692.
The result for “GTAAGTGCTTGGGTTCTAACCTGTTGCCT (site GTAAGTGCTAG)” reads 1.28.
